# Experimental data from article PMC6882465, “Towards discovery of new leishmanicidal scaffolds able to inhibit Leishmania GSK-3” (Journal of Enzyme Inhibition and Medicinal Chemistry, 2019).
# Biological target: LdGSK-3 (Leishmania donovani, UniProt A6N857)
# Test: Inhibition of LdGSK-3 with Kinase Glo
# Assay type: biochemical
# Conditions: for % inhibition @ 10µM (initial screening on LdGSK3): Table S2
# Description: Assessment of inhibition of LdGSK-3 with Kinase Glo^TM
# The reaction was allowed to proceed for 30 min at 30 °C, then it was incubated at room temperature for another 10 min after addition of Kinase Glo reagents (Promega, Ref. V6712). ATP consumption by LdGSK-3 was measured indirectly through end-point luminescence measurement of each well in a Varioskan Flash microplate reader (Thermo).
# Chain of LdGSK-3 (A6N857 entry or part of it): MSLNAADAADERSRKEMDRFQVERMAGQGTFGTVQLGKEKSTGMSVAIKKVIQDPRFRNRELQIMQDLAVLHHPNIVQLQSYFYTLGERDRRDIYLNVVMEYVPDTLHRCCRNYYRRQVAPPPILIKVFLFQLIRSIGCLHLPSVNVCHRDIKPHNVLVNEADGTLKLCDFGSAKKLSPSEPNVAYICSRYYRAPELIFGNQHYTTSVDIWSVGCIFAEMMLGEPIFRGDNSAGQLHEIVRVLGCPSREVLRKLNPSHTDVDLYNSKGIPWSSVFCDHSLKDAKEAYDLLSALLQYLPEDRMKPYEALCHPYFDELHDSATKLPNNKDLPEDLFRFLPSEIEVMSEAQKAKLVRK
SMILES,% inhibition @ 10µM (initial screening on LdGSK3),percentage of inhibition of LdGSK-3 (assayed at 10 µM)
CNc1nc(C)nc(N2CCc3cc(C(=O)NCc4ccc(-c5ccn[nH]5)cc4Cl)ccc32)n1.O=C(O)C(F)(F)F [Compound 25],-13.55±3.90%,
CN(Cc1nc2ccc(C(=O)NCC3CCCCC3)cc2[nH]1)C1CCCc2cccnc21.O=C(O)C(F)(F)F (stereo not shown) [Compound 28],1.15±1.75%,
Cn1nc(C(=O)N2CCc3ccccc32)c2c1CCS(=O)(=O)C2 [Compound 30],5.20±1.90%,
CCCc1cc(N)nc(-c2cc(CCC)cc(N)n2)c1 [Compound 33],-0.35±3.85%,
CCc1nn(-c2ncc(F)c(NC(C)C)n2)c(N)c1C1CCCCC1 [Compound 41],7.05±1.35%,
CN(CCOc1ccc(Cl)cc1)Cc1nc(N)nc(N(C)C)n1 [Compound 44],-2.45±1.00%,
CC(C)COC(=O)Nc1ccc(N2CCC(CNS(=O)(=O)c3ccccc3)CC2)c(F)c1 [Compound 46],4.95±4.45%,
Cc1cc(C)cc(NS(=O)(=O)c2cc(-c3cc(C)[nH]n3)ccc2C)c1 [Compound 51],5.95±1.25%,
Nc1cc(-c2ccc3ncnc(N4CCOCC4)c3c2)cnc1N [Compound 55],0.55±3.00%,
COc1ccc(Oc2ccc(C(C)N(C)c3ncc4c(N)nc(N)nc4n3)cc2)cc1 (stereo not shown) [Compound 56],0.50±2.95%,
O=C(Nc1ccc(S(=O)(=O)N2CCCC2)cc1)c1ccc([N+](=O)[O-])s1 [Compound 59],16.15±4.10%,
CC(C)c1sc(Cl)nc1C(=O)NCCc1nc(C(=O)Nc2ccc3c(c2)OCO3)cs1 [Compound 60],0.20±2.80%,
CC(c1ccc2c(c1)CCCC2)N(C)c1ncc2c(N)nc(N)nc2n1 (stereo not shown) [Compound 62],12.10±2.40%,
N#Cc1cccc(CNc2ccc(-c3cnn(CC4CC4)c(=O)c3C#N)cc2)c1 [Compound 63],-3.20±0.80%,
Cc1ccc(Nc2nc(C3CCCN3Cc3ccn[nH]3)cs2)nc1 (stereo not shown) [Compound 65],-0.35±2.35%,
O=C1CN(C(=O)c2cccc(Nc3ncc(-c4ccc5c(c4)OCO5)cn3)c2)CCN1 [Compound 67],5.65±3.60%,
Cc1ccc(-c2csc(NC(=O)C=Cc3ccc(S(=O)(=O)N4CCOCC4)cc3)n2)o1 [Compound 69],64.27±2.13%,higher than 50%
CCCn1c(NC(=O)CCn2cc(Br)cn2)nc2ccccc21 [Compound 70],3.80±1.25%,
N#CN1CC[C@@H](NC(=O)Nc2ccccc2Oc2ccccc2)C1 [Compound 72],7.40±4.30%,
CC(c1cc(Cl)cc(Cl)c1)N(C)c1ncc2c(N)nc(N)nc2n1 (stereo not shown) [Compound 75],10.05±1.10%,
COc1cccc(CN(C)Cc2nc(N)c3c(C)c(C)sc3n2)c1 [Compound 81],6.35±3.00%,
N#Cc1ccccc1S(=O)(=O)N1CCN(C(=O)CNC(=O)c2ccc3c(c2)OCO3)CC1 [Compound 82],1.90±2.60%,
CNc1nc(C)nc(N2CCc3cc(C(=O)NCc4ccc(-c5nccn5C)cc4Cl)ccc32)n1.O=C(O)C(F)(F)F [Compound 83],-5.05±0.45%,
COc1cnc2ccc(=O)n(CCN3CCC(NC/C=C/c4cc(F)ccc4F)CC3)c2c1 [Compound 84],3.55±2.20%,
COc1ccc(-c2cnc(NC(=O)c3ccc(F)cc3)n2C)cc1 [Compound 88],2.00±1.95%,
O=C(Nc1cccc(Cl)c1)Nc1ccc([N+](=O)[O-])cc1Cl [Compound 89],4.80±2.05%,
CN(Cc1nc2cccc(C(=O)N3CCN(Cc4ccccc4)CC3)c2[nH]1)C1CCCc2cccnc21.O=C(O)C(F)(F)F (stereo not shown) [Compound 91],12.65±6.10%,
CC(C)c1nn(-c2nc(N)nc(-c3ccccn3)n2)c(N)c1C1CCCCC1 [Compound 94],10.45±0.55%,
O=C(c1ccc(O)c(Cl)c1)N1CCN(c2cnccn2)CC1 [Compound 96],1.65±2.40%,
Cc1ccc(NC(=O)c2ccc([N+](=O)[O-])s2)cc1S(=O)(=O)N1CCOCC1 [Compound 97],6.15±1.05%,

# Results, then the compound that gave them:
% inhibition @ 10µM (initial screening on LdGSK3),percentage of inhibition of LdGSK-3 (assayed at 10 µM),SMILES
4.75±1.20%,,Nc1nc(-c2ccccn2)nc(-n2nc(-c3cccc(C(F)(F)F)c3)cc2N)n1.O=C(O)C(F)(F)F [Compound 26]
6.35±5.75%,,COCc1cc(Nc2ccc(Cl)cc2)nc(-c2ccccn2)n1 [Compound 27]
3.80±1.90%,,Cc1nn(-c2nc(N)nc(-c3ccccn3)n2)c(N)c1-c1ccccc1.O=C(O)C(F)(F)F.O=C(O)C(F)(F)F [Compound 29]
8.20±1.70%,,Cc1nnc(-c2nc(NCc3ccc(Cl)cc3)c3cccnc3c2O)[nH]1 [Compound 31]
8.80±4.10%,,COc1cccc(Nc2cc(C)nc(-c3ccccn3)n2)c1 [Compound 32]
-2.00±2.70%,,c1ccc(Nc2nc(-c3ccccn3)cc(N3CCOCC3)n2)cc1 [Compound 34]
2.90±4.05%,,COCc1cc(Nc2ccccc2)nc(-c2ccccn2)n1 [Compound 35]
7.10±1.90%,,CCN(CC)c1nc(Nc2ccncc2)nc2ccccc12 [Compound 36]
5.90±4.55%,,Cc1nc2c(-c3ncn[nH]3)cc(NC(=O)Cc3ccccc3)cn2c1C.O=CO [Compound 37]
7.10±1.40%,,CCNc1cc(-c2ccccn2)nc(Nc2ccccc2)n1 [Compound 38]
9.00±3.05%,,COCc1cc(Nc2cccc(Cl)c2)nc(-c2ccccn2)n1 [Compound 39]
13.50±3.10%,,c1ccc(Nc2nc3ccccc3[nH]2)nc1 [Compound 40]
5.30±2.55%,,COc1ccc(Nc2nc(-c3ccccn3)cc(N3CCCC(O)C3)n2)cc1 (stereo not shown) [Compound 42]
15.30±1.60%,,COc1ccc(CNc2cc(C3CC3)nc(-c3nccn3C)n2)cc1.O=C(O)C(F)(F)F [Compound 43]
-2.50±5.50%,,CCNc1cc(-c2ccccn2)nc(Nc2ccc(OC)cc2)n1 [Compound 45]
1.55±0.55%,,O=C(Nc1nc(-c2ccccn2)cs1)N1C[C@H]2C[C@@]2(c2ccccc2)C1 [Compound 47]
3.25±2.75%,,Cc1ccc(Nc2nc(-c3ccccn3)cc(N3CCCC(O)C3)n2)cc1 (stereo not shown) [Compound 48]
5.60±2.35%,,Cc1ccccc1CNc1cc(C2CC2)nc(-c2nccn2C)n1.O=C(O)C(F)(F)F [Compound 49]
4.70±2.30%,,CC(C)(C)c1cc(NC2CC2)nc(-c2ccccn2)n1 [Compound 50]
5.05±2.35%,,Oc1c(-c2n[nH]c(Cc3ccc(Cl)cc3)n2)ncc2cccnc12 [Compound 52]
-1.60±1.50%,,O=C(Nc1nc2ccccc2[nH]1)c1ccc2nc[nH]c2c1 [Compound 53]

% inhibition @ 10µM (initial screening on LdGSK3),percentage of inhibition of LdGSK-3 (assayed at 10 µM),SMILES
0.10±1.10%,,O=C(Nc1nc(-c2ccccn2)cs1)C1CCc2ccccc2C1 (stereo not shown) [Compound 54]
6.10±3.15%,,Cc1cc(-c2cccc3ccccc23)nc2nc(N)nc(N)c12 [Compound 57]
3.75±2.40%,,O=C(CN(Cc1ccccn1)Cc1ccccn1)NC1Cc2ccccc2C1.O=C(O)C(F)(F)F [Compound 58]
-2.20±1.15%,,COc1cccc(-c2c(C)nn(-c3nc(N)nc(-c4ccccn4)n3)c2N)c1 [Compound 61]
1.40±0.95%,,O=C(Nc1ccccc1)Nc1nc(-c2ccccn2)cs1 [Compound 64]
0.90±0.90%,,Oc1c(-c2n[nH]c(CCc3ccccc3)n2)ncc2cccnc12 [Compound 66]
6.80±1.95%,,O=C(CN(Cc1ccccn1)Cc1ccccn1)NCc1csc(-c2cccs2)n1.O=C(O)C(F)(F)F [Compound 68]
-3.05±0.35%,,Cc1cc(N2CCc3ccccc3C2)nc(Nc2ccc(S(=O)(=O)N3CCOCC3)cc2)n1.Cl [Compound 73]
10.00±0.75%,,Cc1ccc2onc(Nc3ccnc(Nc4cccc(S(C)(=O)=O)c4)n3)c2c1.O=C(O)C(F)(F)F [Compound 74]
5.70±0.50%,,O=C(Nc1n[nH]c(-c2ccccn2)n1)C1CC1c1ccccc1 (stereo not shown) [Compound 76]
4.60±0.95%,,COc1ccc(Cc2nc(-c3ncc4cccnc4c3O)n[nH]2)cc1OC [Compound 77]
4.90±1.45%,,CCOc1ccc(CN(C)Cc2nc(N)nc(Nc3ccc(C)cc3)n2)cc1 [Compound 78]
6.40±1.30%,,Cc1ccc(Nc2nc(N)nc(CNC(c3nc4ccccc4[nH]3)C(C)C)n2)cc1 (stereo not shown) [Compound 79]
7.95±1.65%,,Cn1c(CC(=O)NNC(=O)c2ccc3ccccc3n2)nc2ccccc21 [Compound 80]
3.45±4.90%,,CC(c1ccccn1)N(C)Cc1nc2ccccc2n1C(C)C (stereo not shown) [Compound 85]
6.55±2.70%,,c1ccc2sc(Nc3nc4ncccc4[nH]3)nc2c1 [Compound 86]
-0.05±0.95%,,c1ccc(-c2nc(NCc3ccco3)c3ccccc3n2)nc1 [Compound 87]
6.40±2.45%,,COc1ccc(-c2cnc(NC(=O)c3cc(-c4ccccn4)n[nH]3)n2C)cc1 [Compound 90]
-0.55±1.25%,,c1ccc(-c2nc(NC3CCCC3)c3ccccc3n2)nc1 [Compound 92]
-2.35±1.95%,,CCc1cc(C(=O)Nc2nccn2-c2ccccc2)cs1 [Compound 93]
8.50±1.10%,,O=C(CCCNC(=O)c1ccc(Cl)cc1)Nc1nc(-c2ccccn2)cs1 [Compound 98]
